Results: patent publication US20230085307A1, “PYRIDAZINONE COMPOUND AND HERBICIDE” (NISSAN CHEMICAL CORPORATION, priority 2019, published 2023)

Experiments:
[1] = system: green foxtail; assay: Test Example 4: herbicidal effect by soil treatment (Table 19, symbol G); type: in vivo, green foxtail (Setaria viridis); details: amount of applied herbicide 320 g/ha
Method in brief: (§1)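 Soil-surface application: an emulsion agent diluted with water to the predetermined dose is sprayed uniformly over seeds lying under roughly 1.5 cm of sterilized diluvial soil. Boxes stay in a greenhouse at 25° C. to 30° C. Three weeks later, each species is graded on previously defined criteria.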

[2] = system: chickweed; assay: Test Example 5: herbicidal effect by foliage application, plastic box (Table 20, symbol P); type: in vivo, common chickweed (Stellaria media); details: foliage application
Method in brief: (§2)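 Sow seeds spot-wise in sterilized diluvial soil; cover with ~1.5 cm soil. Grow 14 days in greenhouse, 25° C. to 30° C. Spray foliage with emulsion diluted to predetermined amount. Rate effect after 3 weeks.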

[3] = system: Japanese bulrush; assay: Test Example 1: herbicidal activity, application before weed generation under submerged conditions (Table 16, symbol B); type: in vivo, Japanese bulrush (Schoenoplectus juncoides); details: amount of applied herbicide 320 g/ha
Method in brief: (§3)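 Submerged Wagner pots (alluvial soil, 4 cm water) sown with weed seeds and planted with 2.5-leaf rice seedlings; emulsifiable concentrate diluted in water applied to water surface on sowing day. Held in greenhouse at 25-30 °C; injury scored 0-5 by herbicidal rate after three weeks.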

[4] = system: Italian ryegrass; assay: Test Example 4: herbicidal effect by soil treatment (Table 19, symbol K); type: in vivo, Italian ryegrass (Lolium multiflorum); details: amount of applied herbicide 320 g/ha
Method in brief: as §1

[5] = system: windgrass; assay: Test Example 5: herbicidal effect by foliage application, plastic box (Table 20, symbol L); type: in vivo, windgrass (Apera spica-venti); details: foliage application
Method in brief: as §2

[6] = system: lambsquarters; assay: Test Example 4: herbicidal effect by soil treatment (Table 19, symbol O); type: in vivo, lambsquarters (Chenopodium album); details: amount of applied herbicide 320 g/ha
Method in brief: as §1

[7] = system: wild oat; assay: Test Example 5: herbicidal effect by foliage application, plastic box (Table 20, symbol I); type: in vivo, wild oat (Avena fatua); details: foliage application
Method in brief: as §2

[8] = system: late watergrass; assay: Test Example 1: herbicidal activity, application before weed generation under submerged conditions (Table 16, symbol A); type: in vivo, late watergrass (Echinochloa oryzicola); details: amount of applied herbicide 320 g/ha
Method in brief: as §3

[9] = system: blackgrass; assay: Test Example 5: herbicidal effect by foliage application, plastic box (Table 20, symbol J); type: in vivo, blackgrass (Alopecurus myosuroides); details: foliage application
Method in brief: as §2

[10] = system: blackgrass; assay: Test Example 4: herbicidal effect by soil treatment (Table 19, symbol J); type: in vivo, blackgrass (Alopecurus myosuroides); details: amount of applied herbicide 320 g/ha
Method in brief: as §1

[11] = system: persian speedwell; assay: Test Example 4: herbicidal effect by soil treatment (Table 19, symbol R); type: in vivo, Persian speedwell (Veronica persica); details: amount of applied herbicide 320 g/ha
Method in brief: as §1

[12] = system: Japanese bulrush; assay: Test Example 2: herbicidal activity, application during weed generation under submerged conditions (Table 17, symbol B); type: in vivo, Japanese bulrush (Schoenoplectus juncoides); details: AAH 320 g/ha; application during weed generation, submerged conditions
Method in brief: (§4)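 3-wk visual-criteria score after one water-surface dose. Emulsion formulation, water-diluted to set rate; applied at 1–2 leaf stage; alluvial soil, 4 cm standing water; seeds co-sown; greenhouse 25–30° C.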

[13] = system: Italian ryegrass; assay: Test Example 5: herbicidal effect by foliage application, plastic box (Table 20, symbol K); type: in vivo, Italian ryegrass (Lolium multiflorum); details: foliage application
Method in brief: as §2

[14] = system: oval-leafed pondweed; assay: Test Example 2: herbicidal activity, application during weed generation under submerged conditions (Table 17, symbol C); type: in vivo, oval-leafed pondweed (Monochoria vaginalis); details: AAH 320 g/ha; application during weed generation, submerged conditions
Method in brief: as §4

[15] = system: green foxtail; assay: Test Example 5: herbicidal effect by foliage application, plastic box (Table 20, symbol G); type: in vivo, green foxtail (Setaria viridis); details: foliage application
Method in brief: as §2

[16] = system: redroot pigweed; assay: Test Example 4: herbicidal effect by soil treatment (Table 19, symbol N); type: in vivo, redroot pigweed (Amaranthus retroflexus); details: amount of applied herbicide 320 g/ha
Method in brief: as §1

[17] = system: southern crabgrass; assay: Test Example 5: herbicidal effect by foliage application, plastic box (Table 20, symbol F); type: in vivo, southern crabgrass (Digitaria ciliaris); details: foliage application
Method in brief: as §2

[18] = system: velvetleaf; assay: Test Example 4: herbicidal effect by soil treatment (Table 19, symbol M); type: in vivo, velvetleaf (Abutilon theophrasti); details: amount of applied herbicide 320 g/ha
Method in brief: as §1

[19] = system: velvetleaf; assay: Test Example 5: herbicidal effect by foliage application, plastic box (Table 20, symbol M); type: in vivo, velvetleaf (Abutilon theophrasti); details: foliage application
Method in brief: as §2

[20] = system: barnyard grass; assay: Test Example 5: herbicidal effect by foliage application, plastic box (Table 20, symbol H); type: in vivo, barnyard grass (Echinochloa crus-galli); details: foliage application
Method in brief: as §2

[21] = system: wild oat; assay: Test Example 4: herbicidal effect by soil treatment (Table 19, symbol I); type: in vivo, wild oat (Avena fatua); details: amount of applied herbicide 320 g/ha
Method in brief: as §1

[22] = AAH 320 g/ha, evaluated three weeks after application
[23] = 320 g/ha, three weeks after application

Row | Structure (SMILES) | herbicidal effect, G: green foxtail [1] | Herbicidal effect, B: Japanese bulrush [3] | herbicidal effect, K: Italian ryegrass [4] | herbicidal effect, O: lambsquarters [6] | Herbicidal effect, A: late watergrass [8] | herbicidal effect, J: blackgrass [10] | herbicidal effect, R: persian speedwell [11] | herbicidal effect rating, B: Japanese bulrush [12] | herbicidal effect rating, C: oval-leafed pondweed [14] | herbicidal effect, N: redroot pigweed [16] | herbicidal effect, M: velvetleaf [18] | herbicidal effect, I: wild oat [21] | further results
1 | CCCC(=O)Oc1c(C)nn(C)c(=O)c1-c1c(-c2ccc(Cl)s2)sc2ccc(F)cc12 [2-391] | 4 (Herbicidal rate of 70% or more and less than 90%) | 4 (Herbicidal rate of 70% or more and less than 90%) | 5 (Herbicidal rate of 90% or more (almost completely withered)) | 4 (Herbicidal rate of 70% or more and less than 90%) | 5 (Herbicidal rate of 90% or more (almost completely withered)) | 2 (Herbicidal rate of 20% or more and less than 40%) | 3 (Herbicidal rate of 40% or more and less than 70%) | 4 (Herbicidal rate of 70% or more and less than 90%) | 5 (Herbicidal rate of 90% or more (almost completely withered)) | 5 (Herbicidal rate of 90% or more (almost completely withered)) | 3 (Herbicidal rate of 40% or more and less than 70%) | 0 (Herbicidal rate of 5% or less (almost no effect)) | P: chickweed, herbicidal effect (criteria 0-5) [2, 22]: 5 (Herbicidal rate of 90% or more (almost completely withered)); L: windgrass, herbicidal effect (criteria 0-5) [5, 22]: 4 (Herbicidal rate of 70% or more and less than 90%); I: wild oat, herbicidal effect (criteria 0-5) [7, 22]: 3 (Herbicidal rate of 40% or more and less than 70%); J: blackgrass, herbicidal effect (criteria 0-5) [9, 22]: 3 (Herbicidal rate of 40% or more and less than 70%); K: Italian ryegrass, herbicidal effect (criteria 0-5) [13, 22]: 5 (Herbicidal rate of 90% or more (almost completely withered)); G: green foxtail, herbicidal effect (criteria 0-5) [15, 22]: 5 (Herbicidal rate of 90% or more (almost completely withered)); F: southern crabgrass, herbicidal effect (criteria 0-5) [17, 22]: 5 (Herbicidal rate of 90% or more (almost completely withered)); M: velvetleaf, herbicidal effect (criteria 0-5) [19, 22]: 5 (Herbicidal rate of 90% or more (almost completely withered)); H: barnyard grass, herbicidal effect (criteria 0-5) [20, 22]: 5 (Herbicidal rate of 90% or more (almost completely withered))
2 | CCCC(=O)Oc1c(C)nn(C)c(=O)c1-c1c(-c2ccc(F)cc2OCC)sc2cc(F)ccc12 [3-012] | 3 (Herbicidal rate of 40% or more and less than 70%) | 5 (Herbicidal rate of 90% or more (almost completely withered)) | 3 (Herbicidal rate of 40% or more and less than 70%) | 3 (Herbicidal rate of 40% or more and less than 70%) | 5 (Herbicidal rate of 90% or more (almost completely withered)) | 4 (Herbicidal rate of 70% or more and less than 90%) | 5 (Herbicidal rate of 90% or more (almost completely withered)) | 5 (Herbicidal rate of 90% or more (almost completely withered)) | 4 (Herbicidal rate of 70% or more and less than 90%) | 4 (Herbicidal rate of 70% or more and less than 90%) | 0 (Herbicidal rate of 5% or less (almost no effect)) | 3 (Herbicidal rate of 40% or more and less than 70%) | P: chickweed, herbicidal effect grade [2, 23]: 5 (Herbicidal rate of 90% or more (almost completely withered)); L: windgrass, herbicidal effect grade [5, 23]: 5 (Herbicidal rate of 90% or more (almost completely withered)); I: wild oat, herbicidal effect grade [7, 23]: 5 (Herbicidal rate of 90% or more (almost completely withered)); J: blackgrass, herbicidal effect grade [9, 23]: 5 (Herbicidal rate of 90% or more (almost completely withered)); K: Italian ryegrass, herbicidal effect grade [13, 23]: 4 (Herbicidal rate of 70% or more and less than 90%); G: green foxtail, herbicidal effect grade [15, 23]: 4 (Herbicidal rate of 70% or more and less than 90%); F: southern crabgrass, herbicidal effect grade [17, 23]: 5 (Herbicidal rate of 90% or more (almost completely withered)); M: velvetleaf, herbicidal effect grade [19, 23]: 5 (Herbicidal rate of 90% or more (almost completely withered)); H: barnyard grass, herbicidal effect grade [20, 23]: 5 (Herbicidal rate of 90% or more (almost completely withered))
